Here are results for ten molecules from patent US4791215A, “Derivatives of glutamic acid and aspartic acid” (priority 1984, dated 1988).

For one test, the system named is morphine analgesia. The experiment in a line: Increase in analgesia of morphine, Tail Flick Test (Experiment 1). Format: in vivo, rats. The settings on record: for percentage variation of latency of pain sensation / M (10-90) ± SE, mean percentage variation of latency: compound 10 mg/kg i.p. + morphine 2 mg/kg; for M (10-90) ± SE, mean percentage variation of latency: mean 10-90 min; for Power ratio with respect to morphine alone: rat, in vivo. Summed up:
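Tail-flick latency to 75 °C radiant heat, capped at 8 s, measured in male non-fasted rats weighing 150-200 g. Percentage change per animal derived from pre-treatment baseline versus post-drug readings at 10-90 min (10, 20, 30, 45, 60, 90 min).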
(In general: Hot-plate and tail-flick tests time the reaction to a heat stimulus.)

The subject of test [1] is CCK-8 induced contraction of guinea pig gall bladder. The experiment in a line: Anti-CCK activity on gall bladder strips in vitro. Particulars: CCK-8 10 ng/ml. Here is the method: ANTI-CCK ACTIVITY ON GUINEA PIG GALL BALDDERS IN VITRO
A longitudinal strip of guinea pig gall bladder was placed in a bath of isolated members in the presence of Krebs at a temperature of 32° C. with continuous oxygenation with an oxygen-CO2 mixture (95-5V/V).
The isometric contractions were detected by means of a force transducer and recorded.
The gall bladder was made to contract with the use of a 10 ng/ml concentration of CCK-8; the antagonistic activity of the compounds of the invention on the contracting effect of the CCK was determined with the use of different concentrations and the ED 50 value, that is the concentration in μg/ml of a compound which could antagonise 50% of the contracting effect of the CCK, was determined.

As to `CCCN(CCC)C(=O)C(CCC(=O)O)NC(=O)c1cc(I)c(I)c(I)c1` (stereo not drawn) [Compound C-19], the “percentage variation of latency of pain sensation” value is 3.6 ± 12.0% with morphine analgesia (10'); 42.8 ± 19.0% in the test with morphine analgesia (20'); 58.4 ± 21.0% with morphine analgesia (30'); 66.1% in the test on morphine analgesia (45'); 57.1 ± 18.0% in the test on morphine analgesia (60'); 35.6 ± 20.0% in the test with morphine analgesia (90'). Moreover, the “M (10-90) ± SE, mean percentage variation of latency” value in the test with morphine analgesia is on record as 43.9 ± 22.7%. Besides, the “Power ratio with respect to morphine alone” value (“Power ratio” below) in the test with morphine analgesia is reported as 1.47. Besides, the “ED50 (concentration antagonising 50% of contracting effect of CCK-8)” value in test [1] was more than 200 µg/mL.
Turning to `CCCCNC(=O)C(CCC(=O)O)NC(=O)c1cccc(C#N)c1` (stereo not drawn) [Compound C-21], the “percentage variation of latency of pain sensation” value with morphine analgesia (10') is 48.6 ± 19.0%; with morphine analgesia (20') it was 37.4 ± 12.0%; in the test on morphine analgesia (30') it was 54.8 ± 19.0%; in the test with morphine analgesia (45'), 44.6 ± 15.0%; in the test on morphine analgesia (60'), 64.0 ± 18.0%; in the test with morphine analgesia (90') it was 54.9 ± 10.0%. Further, the “M (10-90) ± SE, mean percentage variation of latency” value in the test on morphine analgesia is given as 50.7%. Also, the “Power ratio” value in the test on morphine analgesia is reported as 1.70. Further, the “ED50 (concentration antagonising 50% of contracting effect of CCK-8)” value in test [1] was more than 200 µg/mL.
Regarding `CCCN(CCC)C(=O)C(CC(=O)O)NC(=O)c1cccc(C#N)c1` (stereo not drawn) [Compound C-22], the “percentage variation of latency of pain sensation” value in the test with morphine analgesia (10') is 82.7 ± 9.4%; in the test with morphine analgesia (20'), 67.6 ± 18.0%; in the test on morphine analgesia (30'), 88.4 ± 9.3%; in the test on morphine analgesia (45'), 83.3%; with morphine analgesia (60') it was 93.6 ± 6.4%; with morphine analgesia (90'), 53.8 ± 14.9%. The “M (10-90) ± SE, mean percentage variation of latency” value in the test with morphine analgesia is 78.2 ± 15.0%. For the same molecule, in the test on morphine analgesia, the “Power ratio” value was found to be 2.62. In test [1], the “ED50 (concentration antagonising 50% of contracting effect of CCK-8)” value is more than 200 µg/mL.
Take `N#Cc1cccc(C(=O)NC(CC(=O)O)C(=O)NC2CCCCC2)c1` (stereo not drawn) [Compound C-23]: the “percentage variation of latency of pain sensation” value in the test on morphine analgesia (10') stood at 33.1 ± 19.0%; in the test with morphine analgesia (20'), 49.9 ± 15.0%; in the test with morphine analgesia (30') it was 58.2 ± 17.0%; with morphine analgesia (45') it was 68.3 ± 20.0%; in the test on morphine analgesia (60'), 72.0%; in the test on morphine analgesia (90'), 58.7 ± 22.0%. Further, the “M (10-90) ± SE, mean percentage variation of latency” value in the test with morphine analgesia came to 56.7 ± 14.0%. Further, the “Power ratio” value with morphine analgesia is 1.90. Also, the “ED50 (concentration antagonising 50% of contracting effect of CCK-8)” value in test [1] was more than 200 µg/mL.
Take `CCCCN(CCCC)C(=O)C(CCC(=O)O)NC(=O)c1cccc(C#N)c1` (stereo not drawn) [Compound C-24]: the “percentage variation of latency of pain sensation” value with morphine analgesia (10') was determined as 80.3 ± 13.6%; with morphine analgesia (20'), 87.2%; in the test with morphine analgesia (30'), 96.9 ± 3.0%; with morphine analgesia (45') it was 100.0 ± 0.0%; with morphine analgesia (60'), 74.0 ± 16.0%; with morphine analgesia (90'), 75.3 ± 14.0%. For the same molecule, the “M (10-90) ± SE, mean percentage variation of latency” value with morphine analgesia turned out to be 85.6 ± 11.0%. In the test on morphine analgesia, the “Power ratio” value came out at 2.87. Moreover, the “ED50 (concentration antagonising 50% of contracting effect of CCK-8)” value in test [1] was more than 200 µg/mL.
Regarding `CCCCN(CCCC)C(=O)C(CCC(=O)O)NC(=O)c1ccc(Br)cc1` (stereo not drawn) [Compound C-25], the “percentage variation of latency of pain sensation” value with morphine analgesia (10') was found to be 59.7 ± 15.0%; in the test on morphine analgesia (20'), 49.0 ± 13.0%; in the test with morphine analgesia (30'), 71.5%; in the test on morphine analgesia (45'), 61.9 ± 22.0%; in the test on morphine analgesia (60'), 49.0 ± 22.0%; in the test on morphine analgesia (90'), 20.4 ± 6.0%. For the same molecule, in the test with morphine analgesia, the “M (10-90) ± SE, mean percentage variation of latency” value was 51.9 ± 18.0%. In the test on morphine analgesia, the “Power ratio” value is reported as 1.74. Further, the “ED50 (concentration antagonising 50% of contracting effect of CCK-8)” value in test [1] came out at 30.3 µg/mL.
As to `O=C(O)CCC(NC(=O)c1ccc(Cl)c(Cl)c1)C(=O)N1CCCCC1` (stereo not drawn) [Compound C-26], the “percentage variation of latency of pain sensation” value is on record as 50.1 ± 17.0% with morphine analgesia (10'); 80.3 ± 20.0% with morphine analgesia (20'); 84.7 ± 11.0% in the test on morphine analgesia (30'); 71.8 ± 15.0% in the test on morphine analgesia (45'); 32.2% in the test on morphine analgesia (60'); 4.9 ± 6.0% in the test with morphine analgesia (90'). Also, the “M (10-90) ± SE, mean percentage variation of latency” value in the test with morphine analgesia came to 54.0 ± 31.1%. Further, in the test with morphine analgesia, the “Power ratio” value came to 1.81. For the same molecule, the “ED50 (concentration antagonising 50% of contracting effect of CCK-8)” value in test [1] stood at 146.5 µg/mL.
Take `CCCN(CCC)C(=O)C(CCC(=O)O)NC(=O)c1ccc(C)cc1` (stereo not drawn) [Compound C-29]: the “percentage variation of latency of pain sensation” value in the test with morphine analgesia (10') is on record as 48.7 ± 20%; in the test with morphine analgesia (20'), 75.5%; in the test with morphine analgesia (30') it was 73.6 ± 11%; in the test on morphine analgesia (45'), 70.0 ± 19%; in the test with morphine analgesia (60') it was 47.3 ± 23%; in the test with morphine analgesia (90'), 6.0 ± 14%. In addition, the “M (10-90) ± SE, mean percentage variation of latency” value with morphine analgesia is on record as 53.5%. Also, the “Power ratio” value in the test on morphine analgesia turned out to be 1.80. Besides, in test [1], the “ED50 (concentration antagonising 50% of contracting effect of CCK-8)” value was determined as 262 µg/mL.
As to `CCCN(CCC)C(=O)C(CCC(=O)O)NC(=O)c1ccc(C)cc1C` (stereo not drawn) [Compound C-32], the “percentage variation of latency of pain sensation” value stood at 21.8 ± 5% in the test with morphine analgesia (10'); 58.6 ± 17% in the test on morphine analgesia (20'); 83.5 ± 10% in the test on morphine analgesia (30'); 89.8 ± 8% with morphine analgesia (45'); 78.4 ± 13% in the test on morphine analgesia (60'); 52.2 ± 22% in the test with morphine analgesia (90'). Besides, in the test on morphine analgesia, the “M (10-90) ± SE, mean percentage variation of latency” value amounted to 64.0 ± 25%. Moreover, the “Power ratio” value in the test on morphine analgesia stood at 2.15. In addition, the “ED50 (concentration antagonising 50% of contracting effect of CCK-8)” value in test [1] is more than 300 µg/mL.
As to `CCCN(CCC)C(=O)C(CCC(=O)O)NC(=O)c1c(C)cc(C)cc1C` (stereo not drawn) [Compound C-33], the “percentage variation of latency of pain sensation” value in the test with morphine analgesia (10') is on record as -0.1 ± 12%; with morphine analgesia (20') it was 30.9 ± 8%; with morphine analgesia (30'), 38.7%; in the test on morphine analgesia (45') it was 41.7 ± 16%; with morphine analgesia (60') it was 48.7 ± 21%; in the test with morphine analgesia (90'), 46.6 ± 12%. The “M (10-90) ± SE, mean percentage variation of latency” value with morphine analgesia is 34.4 ± 18%. Moreover, in the test with morphine analgesia, the “Power ratio” value is on record as 1.15. In addition, in test [1], the “ED50 (concentration antagonising 50% of contracting effect of CCK-8)” value came out at 131.7 µg/mL.
